A value given as a limit tells only on which side of the number the result lay.

By EC50 is commonly meant the concentration at which the effect is half-maximal. A high value points to lower potency in that assay. Usually Ki stands for the equilibrium dissociation constant of an inhibitor or competing ligand from its target. Low values mean higher affinity, high ones lower affinity.

The subject of one data set is L6. Briefly: Cytotoxicity against rat L6 cells after 72 hrs by alamar blue assay. It counts as cell-based. As to conditions: L6, 72 h. Background: Alamar Blue is a resazurin reagent that responds to reducing activity.
A further data set deals with Plasmodium falciparum. As to the kind of experiment: microbe, parasite or virus in culture. As to conditions: K1.
Data set [1] in a line: Inhibition of Plasmodium falciparum dUTPase by spectrophotometric analysis.
For data set [2], the target named is T1, Deoxyuridine 5'-triphosphate nucleotidohydrolase, mitochondrial (Homo sapiens, UniProt P33316).
T1 sequence (P33316 whole entry): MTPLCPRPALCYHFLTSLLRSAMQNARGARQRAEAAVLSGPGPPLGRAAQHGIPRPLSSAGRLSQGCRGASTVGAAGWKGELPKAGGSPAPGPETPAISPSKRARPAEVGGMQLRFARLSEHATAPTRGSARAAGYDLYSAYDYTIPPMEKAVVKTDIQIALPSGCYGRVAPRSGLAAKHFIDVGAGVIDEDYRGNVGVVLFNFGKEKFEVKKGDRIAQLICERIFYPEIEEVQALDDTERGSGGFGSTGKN
As to the kind of experiment: Inhibition of human dUTPase by spectrophotometric analysis.

Data set [3] can be described thus: Selectivity index, ratio of EC50 for rat L6 cells to EC50 for chloroquine-resistant erythrocytic stage of Plasmodium falciparum K1. It counts as toxicity, cell-based. As to conditions: read-out: Ratio EC50.

Regarding `O=c1ccn(CCCCOC(c2ccccc2)(c2ccccc2)c2ccccc2)c(=O)[nH]1`, the EC50 is 42 µM in the data set on L6 and 4.9 µM with Plasmodium falciparum.
The corresponding values for `O=c1ccn([C@H]2C[C@H](O)[C@@H](CNC(c3ccccc3)(c3ccccc3)c3ccccc3)O2)c(=O)[nH]1` are 44 µM and 4.5 µM.
The corresponding values for `O=c1ccn([C@H]2C[C@H](O)[C@@H](COC(c3ccccc3)(c3ccccc3)c3ccccc3)O2)c(=O)[nH]1` are 192 µM and 6 µM.
`NC(=O)C(CCOC(c1ccccc1)(c1ccccc1)c1ccccc1)Cn1ccc(=O)[nH]c1=O` (racemic): the Ki in data set [1] was 1.3 µM; in data set [2] it was above 100 µM.
The corresponding values for `CN(C)C(=O)C(CCOC(c1ccccc1)(c1ccccc1)c1ccccc1)Cn1ccc(=O)[nH]c1=O` (racemic) are 2.7 µM and above 100 µM.
The corresponding values for `CC(C)(C)[Si](OCCNC(=O)C(CCOC(c1ccccc1)(c1ccccc1)c1ccccc1)Cn1ccc(=O)[nH]c1=O)(c1ccccc1)c1ccccc1` (racemic) are above 10 µM and above 100 µM.
Taken in the same sequence, the figures for `CCOC(=O)CCNC(=O)C(CCOC(c1ccccc1)(c1ccccc1)c1ccccc1)Cn1ccc(=O)[nH]c1=O` (racemic) were 0.5 µM and above 100 µM.
Regarding `CN(C)CCNC(=O)C(CCOC(c1ccccc1)(c1ccccc1)c1ccccc1)Cn1ccc(=O)[nH]c1=O` (racemic), the Ki was 7.8 µM in data set [1] and above 100 µM in data set [2].
Taken in the same sequence, the figures for `O=C(C(CCOC(c1ccccc1)(c1ccccc1)c1ccccc1)Cn1ccc(=O)[nH]c1=O)N1CCOCC1` (racemic) were 2.1 µM and above 100 µM.
The corresponding values for `COCCNC(=O)C(CCOC(c1ccccc1)(c1ccccc1)c1ccccc1)Cn1ccc(=O)[nH]c1=O` (racemic) are 1.4 µM and above 100 µM.
Turning to `CN1CCN(C(=O)C(CCOC(c2ccccc2)(c2ccccc2)c2ccccc2)Cn2ccc(=O)[nH]c2=O)CC1` (racemic), the inhibitory constant (Ki) in data set [1] was 5.6 µM; in data set [2], above 100 µM.
Take `O=C(NCCO)C(CCOC(c1ccccc1)(c1ccccc1)c1ccccc1)Cn1ccc(=O)[nH]c1=O` (racemic): in data set [2], the inhibition constant Ki is above 100 µM.
With `O=C(O)CCNC(=O)C(CCOC(c1ccccc1)(c1ccccc1)c1ccccc1)Cn1ccc(=O)[nH]c1=O` (racemic), the Ki in data set [1] was 0.2 µM; in data set [2], above 100 µM.
Taken in the same sequence, the figures for `CC(C)(C)[Si](OCCC(Cn1ccc(=O)[nH]c1=O)C(=O)O)(c1ccccc1)c1ccccc1` (racemic) were 1.6 µM and above 100 µM.
Turning to `CC(C)(C)[Si](OCCC(Cn1ccc(=O)[nH]c1=O)C(N)=O)(c1ccccc1)c1ccccc1` (racemic), the Ki in data set [1] was 5 µM; in data set [2], above 100 µM.
The corresponding values for `CNC(=O)C(CCO[Si](c1ccccc1)(c1ccccc1)C(C)(C)C)Cn1ccc(=O)[nH]c1=O` (racemic) are 3.6 µM and above 100 µM.
Take `CCNC(=O)C(CCO[Si](c1ccccc1)(c1ccccc1)C(C)(C)C)Cn1ccc(=O)[nH]c1=O` (racemic): the Ki in data set [1] was 5.7 µM; in data set [2], above 100 µM.
Taken in the same sequence, the figures for `CCN(CC)C(=O)C(CCO[Si](c1ccccc1)(c1ccccc1)C(C)(C)C)Cn1ccc(=O)[nH]c1=O` (racemic) were 20 µM and above 100 µM.
On to `CC(C)(C)[Si](OCCC(Cn1ccc(=O)[nH]c1=O)C(=O)N1CCN(C(=O)OCc2ccccc2)CC1)(c1ccccc1)c1ccccc1` (racemic), for which the Ki in data set [1] was 98 µM; in data set [2], above 100 µM.
Taken in the same sequence, the figures for `O=C(OCc1ccccc1)OCC(CCNC(c1ccccc1)(c1ccccc1)c1ccccc1)Cn1ccc(=O)[nH]c1=O` (racemic) were 6.5 µM and above 100 µM.
Consider `O=C(O)C(CCNC(c1ccccc1)(c1ccccc1)c1ccccc1)Cn1ccc(=O)[nH]c1=O` (racemic), for which the results for the Ki in data set [1] and in data set [2] were 7.2 µM and 90 µM, respectively. Also, the EC50 amounted to 51 µM in the data set with L6 and 1.3 µM with Plasmodium falciparum. Moreover, in data set [3], the selectivity ratio was 39.
With `NC(=O)C(CCNC(c1ccccc1)(c1ccccc1)c1ccccc1)Cn1ccc(=O)[nH]c1=O` (racemic), the Ki in data set [1] was found to be 5.5 µM; in data set [2], 98 µM. The EC50 in the data set with L6 was found to be 177 µM; in the data set on Plasmodium falciparum it was 1.1 µM. In data set [3], the selectivity ratio came to 161.
For `O=c1ccn(CC(CO)CCOC(c2ccccc2)(c2ccccc2)c2ccccc2)c(=O)[nH]1` (racemic), the 50% effective concentration (EC50) in the data set on L6 stood at 33 µM; with Plasmodium falciparum it was 1.2 µM.
Compound `COc1cc([C@@H]2c3cc4c(cc3[C@H](O)[C@H]3COC(=O)[C@H]23)OCO4)cc(OC)c1OC` [PODOFILOX] had a concentration giving a half-maximal response (EC50) in the data set with Plasmodium falciparum of 0.012 µM.

Values taken from ChEMBL document CHEMBL1765032, “β-Branched acyclic nucleoside analogues as inhibitors of Plasmodium falciparum dUTPase” (Bioorg Med Chem, 2011).
